Consider four compounds from patent US11000033B2, “Ketone or oxime compound, and herbicide” (NISSAN CHEMICAL CORPORATION, priority 2014, dated 2021).

Holding throughout (type): in vivo
The subject of data set [1] is Echinochloa oryzacola Vasing. Put plainly: Test Example 2: herbicidal activity, application during weed generation in submerged conditions (symbol A). The settings on record: Table 23; application herbicide amount 320 g/ha; grade 0-5 by criteria of Test Example 1. In a few lines: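 Submerged alluvial soil (4 cm) sown with mixed seed; greenhouse 25–30° C. 1–2 leaf: diluted emulsion onto water surface, preset dose. Visual score, 3 wk.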

Data set [2] deals with Echinochloa crus-galli var. crus-galli. Put plainly: Test Example 3: herbicidal effect by foliage application, Wagner pot (symbol H). The settings on record: application herbicide amount 320 g/ha. In a few lines: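 Steps: fill pot with alluvial soil; add water to 0.1–0.5 cm depth; sow weed and rice seed; grow 14 days at 25–30 °C; spray diluted emulsion over the leaves; rate effect after 3 weeks.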

Data set [3] has as its system Digitaria ciliaris. Put plainly: Test Example 4: herbicidal effect by soil treatment (symbol F). To be noted: 320 g/ha. In a few lines: (§1)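 Seeds were sown in sterilized diluvial soil, covered with about 1.5 cm of soil, and the soil surface was sprayed with a water-diluted emulsion of the compound at a predetermined rate. Plants grew in a greenhouse at 25° C. to 30° C.; effects were scored visually 3 weeks after application.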

In the next data set the test system is Avena fatua. Put plainly: Test Example 4: herbicidal effect by soil treatment (symbol I). To be noted: 320 g/ha. In a few lines: as §1
The test system of another data set is Alopecurus myosuroides. Put plainly: Test Example 4: herbicidal effect by soil treatment (symbol J). To be noted: 320 g/ha. The essentials:
as §1

The subject of data set [4] is Abutilon theophrasti. Put plainly: Test Example 4: herbicidal effect by soil treatment (symbol M). To be noted: 320 g/ha. In a few lines: as §1
Data set [5] relates to Veronica persica. Put plainly: Test Example 4: herbicidal effect by soil treatment (symbol R). To be noted: 320 g/ha. In a few lines: as §1
In data set [6] the test system is beet. Put plainly: Test Example 4: effect on crop by soil treatment (symbol f). The settings on record: 320 g/ha. The essentials: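 Seeds were sown in spots on sterilized diluvial soil in a plastic box and covered with about 1.5 cm of soil. Plants were then grown in a greenhouse at 25° C. to 30° C.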
In data set [7] the test system is Digitaria ciliaris. Put plainly: Test Example 5: herbicidal effect by foliage application, plastic box (symbol F). The settings on record: 320 g/ha, 3 weeks after application. The essentials: (§2)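 Effect is rated 3 weeks after a foliar spray of water-diluted emulsion concentrate at a predetermined herbicide amount. Plants had grown 14 days in a 25° C. to 30° C. greenhouse from seed in sterilized diluvial soil.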

A further data set has as its system Apera spica-venti. Put plainly: Test Example 5: herbicidal effect by foliage application, plastic box (symbol L). The settings on record: 320 g/ha, 3 weeks after application. The essentials:
as §2

For data set [8], the system named is Abutilon theophrasti. Put plainly: Test Example 5: herbicidal effect by foliage application, plastic box (symbol M). The settings on record: 320 g/ha, 3 weeks after application. In a few lines: as §2
A further data set relates to Amaranthus retroflexus. Put plainly: Test Example 5: herbicidal effect by foliage application, plastic box (symbol N). To be noted: 320 g/ha, 3 weeks after application. The essentials:
as §2

Data set [9] deals with Veronica persica. Put plainly: Test Example 5: herbicidal effect by foliage application, plastic box (symbol R). The settings on record: 320 g/ha, 3 weeks after application. In a few lines: as §2
The subject of the next data set is soybean. Put plainly: Test Example 5: effect on crop by foliage application, plastic box (symbol d). The settings on record: 320 g/ha, 3 weeks after application. In a few lines: (§3)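 In a plastic box 7 cm deep filled with sterilized diluvial soil, seeds of crops and weeds such as Digitaria ciliaris, Avena fatua and Amaranthus retroflexus are sown in spots and covered with about 1.5 cm of soil before greenhouse growth at 25–30° C.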

The next data set has as its system rice plant. Put plainly: Test Example 5: effect on crop by foliage application, plastic box (symbol b). To be noted: 320 g/ha, 3 weeks after application. In a few lines:
as §3

Data set [10] deals with beet. Put plainly: Test Example 5: effect on crop by foliage application, plastic box (symbol f). To be noted: 320 g/ha, 3 weeks after application. In a few lines:
as §3

As to `CON=C(C)CC1CC(OC(=O)COc2ccc3ccccc3c2)=C(c2c(C)cc(C)cc2C)C1=O` (stereo not shown) [1-083], the “Herbicidal effect grade, A: Echinochloa oryzacola Vasing.” value in [1] is 5 (Herbicidal ratio of 90% or more (almost completely withered)). For the same compound, the “herbicidal effect on H (Echinochloa crus-galli var. crus-galli), grade 0-5” value (“herbicidal effect on H” below) in data set [2] is 5 (Herbicidal ratio of 90% or more (almost completely withered)). Besides, in the data set on Digitaria ciliaris [3], the “F: Digitaria ciliaris, herbicidal effect grade” value is reported as 5 (Herbicidal ratio of 90% or more (almost completely withered)). Also, in the data set with Avena fatua, the “I: Avena fatua, herbicidal effect grade” value is 3 (Herbicidal ratio of 40% or higher and lower than 70%). Moreover, the “J: Alopecurus myosuroides, herbicidal effect grade” value (“J: Alopecurus myosuroides” for short) in the data set on Alopecurus myosuroides was 5 (Herbicidal ratio of 90% or more (almost completely withered)). For the same compound, the “M: Abutilon theophrasti, herbicidal effect grade” value in the data set on Abutilon theophrasti [4] was 4 (Herbicidal ratio of 70% or higher and lower than 90%). For the same compound, the “R: Veronica persica, herbicidal effect grade” value in the data set on Veronica persica [5] is reported as 0 (Herbicidal ratio of 5% or lower (almost no effect)). For the same compound, in the data set on beet [6], the “f: beet, effect grade on crop” value was 0 (Herbicidal ratio of 5% or lower (almost no effect)). The “F: Digitaria ciliaris, herbicidal effect (criteria 0-5)” value (from here on “F: Digitaria ciliaris … (criteria 0-5)”) with Digitaria ciliaris [7] is 5 (Herbicidal ratio of 90% or more (almost completely withered)). The “L: Apera spica-venti, herbicidal effect (criteria 0-5)” value (shortened to “L: Apera spica-venti”) in the data set on Apera spica-venti is listed as 5 (Herbicidal ratio of 90% or more (almost completely withered)). In the data set on Abutilon theophrasti [8], the “M: Abutilon theophrasti, herbicidal effect (criteria 0-5)” value is 4 (Herbicidal ratio of 70% or higher and lower than 90%). For the same compound, the “N: Amaranthus retroflexus, herbicidal effect (criteria 0-5)” value (shortened to “N: Amaranthus retroflexus”) in the data set on Amaranthus retroflexus was 4 (Herbicidal ratio of 70% or higher and lower than 90%). Moreover, the “R: Veronica persica, herbicidal effect (criteria 0-5)” value (“R: Veronica persica … (criteria 0-5)” below) in the data set on Veronica persica [9] was 0 (Herbicidal ratio of 5% or lower (almost no effect)). For the same compound, in the data set with soybean, the “d: soybean, effect on crop (criteria 0-5)” value (“d: soybean, effect on crop” below) was 4 (Herbicidal ratio of 70% or higher and lower than 90%). Moreover, the “b: directly sowed rice plant, effect on crop (criteria 0-5)” value (“b: directly sowed rice plant, effect” below) in the data set with rice plant is listed as 5 (Herbicidal ratio of 90% or more (almost completely withered)). In the data set with beet [10], the “f: beet, effect on crop (criteria 0-5)” value is listed as 0 (Herbicidal ratio of 5% or lower (almost no effect)).
For the compound `CON=C(CC1CC(O)=C(c2c(C)cc(C)cc2C)C1=O)C1CCCCC1` (stereo not shown) [1-085], the “Herbicidal effect grade, A: Echinochloa oryzacola Vasing.” value in [1] was 3 (Herbicidal ratio of 40% or higher and lower than 70%). Moreover, the “herbicidal effect on H” value in data set [2] is 5 (Herbicidal ratio of 90% or more (almost completely withered)). Further, in the data set with Digitaria ciliaris [3], the “F: Digitaria ciliaris, herbicidal effect grade” value is 0 (Herbicidal ratio of 5% or lower (almost no effect)). Also, in the data set with Avena fatua, the “I: Avena fatua, herbicidal effect grade” value was 0 (Herbicidal ratio of 5% or lower (almost no effect)). In addition, the “J: Alopecurus myosuroides” value in the data set with Alopecurus myosuroides was 3 (Herbicidal ratio of 40% or higher and lower than 70%). Moreover, in the data set on Abutilon theophrasti [4], the “M: Abutilon theophrasti, herbicidal effect grade” value is 0 (Herbicidal ratio of 5% or lower (almost no effect)). The “R: Veronica persica, herbicidal effect grade” value with Veronica persica [5] is 0 (Herbicidal ratio of 5% or lower (almost no effect)). Also, in the data set on beet [6], the “f: beet, effect grade on crop” value is given as 0 (Herbicidal ratio of 5% or lower (almost no effect)). The “F: Digitaria ciliaris … (criteria 0-5)” value in the data set on Digitaria ciliaris [7] is 3 (Herbicidal ratio of 40% or higher and lower than 70%). Also, the “L: Apera spica-venti” value with Apera spica-venti is 3 (Herbicidal ratio of 40% or higher and lower than 70%). The “M: Abutilon theophrasti, herbicidal effect (criteria 0-5)” value in the data set with Abutilon theophrasti [8] is 0 (Herbicidal ratio of 5% or lower (almost no effect)). Moreover, the “N: Amaranthus retroflexus” value with Amaranthus retroflexus was 0 (Herbicidal ratio of 5% or lower (almost no effect)). The “R: Veronica persica … (criteria 0-5)” value with Veronica persica [9] is 0 (Herbicidal ratio of 5% or lower (almost no effect)). Also, the “d: soybean, effect on crop” value in the data set on soybean is reported as 0 (Herbicidal ratio of 5% or lower (almost no effect)). For the same compound, in the data set with rice plant, the “b: directly sowed rice plant, effect” value was 4 (Herbicidal ratio of 70% or higher and lower than 90%). Further, the “f: beet, effect on crop (criteria 0-5)” value with beet [10] is 0 (Herbicidal ratio of 5% or lower (almost no effect)).
For `C=CC(CC1CC(O)=C(c2c(C)cc(C)cc2C)C1=O)=NOC` (stereo not shown) [1-086], the “Herbicidal effect grade, A: Echinochloa oryzacola Vasing.” value in data set [1] is on record as 5 (Herbicidal ratio of 90% or more (almost completely withered)). Besides, the “herbicidal effect on H” value in data set [2] is 5 (Herbicidal ratio of 90% or more (almost completely withered)). The “F: Digitaria ciliaris, herbicidal effect grade” value with Digitaria ciliaris [3] was 2 (Herbicidal ratio of 20% or higher and lower than 40%). Further, the “I: Avena fatua, herbicidal effect grade” value in the data set on Avena fatua is 3 (Herbicidal ratio of 40% or higher and lower than 70%). Further, in the data set on Alopecurus myosuroides, the “J: Alopecurus myosuroides” value is 3 (Herbicidal ratio of 40% or higher and lower than 70%). For the same compound, in the data set on Abutilon theophrasti [4], the “M: Abutilon theophrasti, herbicidal effect grade” value is on record as 0 (Herbicidal ratio of 5% or lower (almost no effect)). Further, the “R: Veronica persica, herbicidal effect grade” value in the data set with Veronica persica [5] is reported as 0 (Herbicidal ratio of 5% or lower (almost no effect)). For the same compound, the “f: beet, effect grade on crop” value in the data set with beet [6] was 0 (Herbicidal ratio of 5% or lower (almost no effect)). For the same compound, the “F: Digitaria ciliaris … (criteria 0-5)” value in the data set on Digitaria ciliaris [7] is recorded as 0 (Herbicidal ratio of 5% or lower (almost no effect)). The “L: Apera spica-venti” value with Apera spica-venti is 4 (Herbicidal ratio of 70% or higher and lower than 90%). In addition, the “M: Abutilon theophrasti, herbicidal effect (criteria 0-5)” value in the data set on Abutilon theophrasti [8] is 0 (Herbicidal ratio of 5% or lower (almost no effect)). Moreover, the “N: Amaranthus retroflexus” value in the data set on Amaranthus retroflexus was 0 (Herbicidal ratio of 5% or lower (almost no effect)). Also, in the data set with Veronica persica [9], the “R: Veronica persica … (criteria 0-5)” value was 2 (Herbicidal ratio of 20% or higher and lower than 40%). Further, the “d: soybean, effect on crop” value in the data set on soybean is 0 (Herbicidal ratio of 5% or lower (almost no effect)). The “b: directly sowed rice plant, effect” value in the data set with rice plant was 4 (Herbicidal ratio of 70% or higher and lower than 90%). In addition, the “f: beet, effect on crop (criteria 0-5)” value with beet [10] was 0 (Herbicidal ratio of 5% or lower (almost no effect)).
Regarding `CON=C(C)CC1CC(OC(=O)C(C)Oc2ccc(Oc3cnc4cc(Cl)ccc4n3)cc2)=C(c2c(C)cc(C)cc2C)C1=O` (stereo not shown) [1-087], the “Herbicidal effect grade, A: Echinochloa oryzacola Vasing.” value in data set [1] is given as 5 (Herbicidal ratio of 90% or more (almost completely withered)). In data set [2], the “herbicidal effect on H” value is 5 (Herbicidal ratio of 90% or more (almost completely withered)). Besides, the “F: Digitaria ciliaris, herbicidal effect grade” value in the data set with Digitaria ciliaris [3] is reported as 5 (Herbicidal ratio of 90% or more (almost completely withered)). For the same compound, the “I: Avena fatua, herbicidal effect grade” value in the data set on Avena fatua is 3 (Herbicidal ratio of 40% or higher and lower than 70%). Further, the “J: Alopecurus myosuroides” value in the data set with Alopecurus myosuroides was 5 (Herbicidal ratio of 90% or more (almost completely withered)). In addition, in the data set on Abutilon theophrasti [4], the “M: Abutilon theophrasti, herbicidal effect grade” value is reported as 5 (Herbicidal ratio of 90% or more (almost completely withered)). The “R: Veronica persica, herbicidal effect grade” value in the data set with Veronica persica [5] is given as 0 (Herbicidal ratio of 5% or lower (almost no effect)). The “f: beet, effect grade on crop” value in the data set on beet [6] is 4 (Herbicidal ratio of 70% or higher and lower than 90%). For the same compound, in the data set with Digitaria ciliaris [7], the “F: Digitaria ciliaris … (criteria 0-5)” value is on record as 5 (Herbicidal ratio of 90% or more (almost completely withered)). In the data set on Apera spica-venti, the “L: Apera spica-venti” value was 5 (Herbicidal ratio of 90% or more (almost completely withered)). The “M: Abutilon theophrasti, herbicidal effect (criteria 0-5)” value in the data set with Abutilon theophrasti [8] is given as 5 (Herbicidal ratio of 90% or more (almost completely withered)). The “N: Amaranthus retroflexus” value in the data set on Amaranthus retroflexus was 4 (Herbicidal ratio of 70% or higher and lower than 90%). Also, the “R: Veronica persica … (criteria 0-5)” value in the data set on Veronica persica [9] was 3 (Herbicidal ratio of 40% or higher and lower than 70%). Further, the “d: soybean, effect on crop” value with soybean was 3 (Herbicidal ratio of 40% or higher and lower than 70%). In addition, in the data set on rice plant, the “b: directly sowed rice plant, effect” value is recorded as 5 (Herbicidal ratio of 90% or more (almost completely withered)). Further, the “f: beet, effect on crop (criteria 0-5)” value in the data set with beet [10] was 4 (Herbicidal ratio of 70% or higher and lower than 90%).
